Calls of active or inactive are those of the source. No cut-off for these calls is given here.
Experiments:
ASPC1 = assay: Cytotoxicity against human AsPC1 cells assessed as cell viability 10 uM after 72 hrs by cell counting analysis relative to control; format: functional
[1] = target: T1, 3-phosphoinositide-dependent protein kinase 1 (Homo sapiens, UniProt O15530); assay: Inhibition of PDK1 (unknown origin) incubated for 1 hr by Z'Lyte assay
T1 sequence (O15530 whole entry): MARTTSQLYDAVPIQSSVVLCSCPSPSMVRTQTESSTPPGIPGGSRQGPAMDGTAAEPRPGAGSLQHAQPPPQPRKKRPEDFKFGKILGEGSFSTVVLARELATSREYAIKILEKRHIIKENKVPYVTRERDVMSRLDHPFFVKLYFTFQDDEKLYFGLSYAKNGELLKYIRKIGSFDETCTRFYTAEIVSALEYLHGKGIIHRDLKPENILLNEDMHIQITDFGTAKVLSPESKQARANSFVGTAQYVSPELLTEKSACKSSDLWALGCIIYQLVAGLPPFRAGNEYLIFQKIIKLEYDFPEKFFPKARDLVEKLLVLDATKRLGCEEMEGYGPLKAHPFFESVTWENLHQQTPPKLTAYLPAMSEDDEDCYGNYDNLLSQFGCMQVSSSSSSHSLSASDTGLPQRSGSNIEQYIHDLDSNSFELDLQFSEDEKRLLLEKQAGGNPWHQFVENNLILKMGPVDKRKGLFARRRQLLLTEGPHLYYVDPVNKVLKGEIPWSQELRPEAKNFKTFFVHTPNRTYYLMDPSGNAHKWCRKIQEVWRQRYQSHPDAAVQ

[2] = target: RAC-alpha serine/threonine-protein kinase (Homo sapiens) (UniProt P31749); assay: Inhibition of recombinant Akt1 (unknown origin) incubated for 1 hr by Z'Lyte assay
Chain of RAC-alpha serine/threonine-protein kinase (Homo sapiens) (P31749 whole entry): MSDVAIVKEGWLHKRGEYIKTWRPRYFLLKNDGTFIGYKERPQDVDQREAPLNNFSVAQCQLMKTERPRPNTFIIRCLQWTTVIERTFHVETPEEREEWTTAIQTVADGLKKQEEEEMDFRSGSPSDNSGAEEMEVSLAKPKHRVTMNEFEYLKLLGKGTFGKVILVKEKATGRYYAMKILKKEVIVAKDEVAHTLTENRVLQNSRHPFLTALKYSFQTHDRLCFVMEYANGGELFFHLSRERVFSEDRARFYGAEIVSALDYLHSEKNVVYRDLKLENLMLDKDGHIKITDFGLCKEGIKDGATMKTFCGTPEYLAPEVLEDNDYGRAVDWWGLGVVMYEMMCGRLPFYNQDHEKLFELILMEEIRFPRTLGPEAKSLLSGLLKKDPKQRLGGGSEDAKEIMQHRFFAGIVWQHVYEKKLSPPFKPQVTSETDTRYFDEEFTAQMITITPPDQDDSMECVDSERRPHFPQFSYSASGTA

U-118-MG = assay: Antiproliferative activity against human U118MG cells assessed as inhibition of cell growth at 100 uM after 72 hrs by WST1 assay; format: functional, cell-based

Row | Structure (SMILES) | Activity (ASPC1) [%] | further results
1 | COc1ccc(CNCC(=O)Nc2ccc3c(c2)/C(=C/c2cccs2)C(=O)N3)cc1OC | 86.75 | –
2 | COc1cc2c(cc1OC)CN(CC(=O)Nc1ccc3c(c1)/C(=C\c1nccn1C)C(=O)N3)CC2 | 82.34 | –
3 | COc1ccc(CNS(=O)(=O)c2ccc3c(c2)/C(=C/c2cccs2)C(=O)N3)cc1OC | 84.18 | –
4 | Cn1ccnc1/C=C1/C(=O)Nc2ccc(NC(=O)Nc3ccc(S(C)(=O)=O)cc3)cc21 | 90.57 | –
5 | COc1cc2c(cc1OC)CN(CC(=O)Nc1ccc3c(c1)/C(=C/c1cccs1)C(=O)N3)CC2 | 82.04 | –
6 | CSc1ccc(NC(=O)Nc2ccc3c(c2)/C(=C/c2cccs2)C(=O)N3)cc1 | 77.29 | –
7 | CS(=O)(=O)Nc1ccc2c(c1)/C(=C/c1cccs1)C(=O)N2 | 68.06 | IC50 [1]: 6.81 µM; inhibition [2]: inactive
8 | Cn1ccnc1/C=C1/C(=O)Nc2ccc(NS(C)(=O)=O)cc21 | 96.23 | –
9 | CSc1ccc(NC(=O)Nc2ccc3c(c2)/C(=C/c2cnc[nH]2)C(=O)N3)cc1 | 82.94 | –
10 | CSc1ccc(NC(=O)Nc2ccc3c(c2)/C(=C\c2nccn2C)C(=O)N3)cc1 | 95.13 | –
11 | CS(=O)(=O)c1ccc(NC(=O)Nc2ccc3c(c2)/C(=C/c2cnc[nH]2)C(=O)N3)cc1 | 82.21 | –
12 | Cn1nnc2c(C(N)=O)ncn2c1=O | – | growth inhibition (GI) (U-118-MG): inactive
13 | CS(=O)(=O)Nc1ccc2c(c1)/C(=C/c1cnc[nH]1)C(=O)N2 | 73.83 | IC50 [1]: 0.31 µM; inhibition [2]: inactive
14 | COc1ccc(CNS(=O)(=O)c2ccc3c(c2)/C(=C\c2nccn2C)C(=O)N3)cc1OC | 84.5 | –
15 | CS(=O)(=O)c1ccc(NC(=O)Nc2ccc3c(c2)/C(=C/c2cccs2)C(=O)N3)cc1 | 93.88 | –
